{"source": "PubChem BioAssay (NCI)", "experiment_in_all_cases": "inhibition of tumour cell growth, NCI panel, 48 h", "key": {"[1]": {"test_system": "786-0 renal"}, "[2]": {"test_system": "A498 renal"}, "[3]": {"test_system": "A549 NSCLC"}, "[4]": {"test_system": "ACHN renal"}, "[5]": {"test_system": "BT-549 breast"}, "[6]": {"test_system": "CAKI-1 renal"}, "[7]": {"test_system": "CCRF-CEM leukemia"}, "[8]": {"test_system": "COLO 205 colon"}, "[9]": {"test_system": "DLD-1 colon"}, "[10]": {"test_system": "DMS 114 small cell lung"}, "[11]": {"test_system": "DMS 273 small cell lung"}, "[12]": {"test_system": "DU-145 prostate"}, "[13]": {"test_system": "EKVX NSCLC"}, "[14]": {"test_system": "HCC-2998 colon"}, "[15]": {"test_system": "HCT-116 colon"}, "[16]": {"test_system": "HCT-15 colon"}, "[17]": {"test_system": "HL-60(TB) leukemia"}, "[18]": {"test_system": "HOP-18 NSCLC"}, "[19]": {"test_system": "HOP-62 NSCLC"}, "[20]": {"test_system": "HOP-92 NSCLC"}, "[21]": {"test_system": "HS 578T breast"}, "[22]": {"test_system": "HT29 colon"}, "[23]": {"test_system": "IGROV1 ovarian"}, "[24]": {"test_system": "K-562 leukemia"}, "[25]": {"test_system": "KM12 colon"}, "[26]": {"test_system": "KM20L2 colon"}, "[27]": {"test_system": "LOX IMVI melanoma"}, "[28]": {"test_system": "LXFL 529 NSCLC"}, "[29]": {"test_system": "M14 melanoma"}, "[30]": {"test_system": "M19-MEL melanoma"}, "[31]": {"test_system": "MALME-3M melanoma"}, "[32]": {"test_system": "MCF7 breast"}, "[33]": {"test_system": "MDA-MB-231 breast"}, "[34]": {"test_system": "MDA-MB-435"}, "[35]": {"test_system": "MDA-N"}, "[36]": {"test_system": "MOLT-4 leukemia"}, "[37]": {"test_system": "NCI-H226 lung"}, "[38]": {"test_system": "NCI-H23 lung"}, "[39]": {"test_system": "NCI-H460 lung"}, "[40]": {"test_system": "NCI-H522 lung"}, "[41]": {"test_system": "NCI/ADR-RES ovarian"}, "[42]": {"test_system": "OVCAR-3 ovarian"}, "[43]": {"test_system": "OVCAR-4 ovarian"}, "[44]": {"test_system": "OVCAR-5 ovarian"}, "[45]": {"test_system": "OVCAR-8 ovarian"}, "[46]": {"test_system": "PC-3 prostate"}, "[47]": {"test_system": "RPMI-8226 leukemia"}, "[48]": {"test_system": "RXF 393 renal"}, "[49]": {"test_system": "RXF-631 renal"}, "[50]": {"test_system": "SF-268 CNS"}, "[51]": {"test_system": "SF-295 CNS"}, "[52]": {"test_system": "SF-539 CNS"}, "[53]": {"test_system": "SK-MEL-2 melanoma"}, "[54]": {"test_system": "SK-MEL-28 melanoma"}, "[55]": {"test_system": "SK-MEL-5 melanoma"}, "[56]": {"test_system": "SK-OV-3 ovarian"}, "[57]": {"test_system": "SN12C renal"}, "[58]": {"test_system": "SNB-19 CNS"}, "[59]": {"test_system": "SNB-75 CNS"}, "[60]": {"test_system": "SNB-78 CNS"}, "[61]": {"test_system": "SR leukemia"}, "[62]": {"test_system": "SW-620 colon"}, "[63]": {"test_system": "TK-10 renal"}, "[64]": {"test_system": "U251 CNS"}, "[65]": {"test_system": "UACC-257 melanoma"}, "[66]": {"test_system": "UACC-62 melanoma"}, "[67]": {"test_system": "UO-31 renal"}, "[68]": {"test_system": "XF 498 CNS"}}, "note": "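Where inhibition never reached the appropriate level, the endpoint shown equals the highest concentration tested. Otherwise, values were interpolated linearly from a five-concentration, 48-hour dose response in 96-well plates. At the TGI there is no net growth.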", "data": [{"smiles": "O=C1/C(=C/c2ccc(Cl)c(Cl)c2)CNC/C1=C\\c1ccc(Cl)c(Cl)c1", "values": [{"measurement": "TGI", "setting": "[1]", "result": 5.53, "unit": "µM"}, {"measurement": "TGI", "setting": "[2]", "result": 32.2, "unit": "µM"}, {"measurement": "TGI", "setting": "[3]", "result": 67.1, "unit": "µM"}, {"measurement": "TGI", "setting": "[4]", "result": 35.6, "unit": "µM"}, {"measurement": "TGI", "setting": "[5]", "result": 87.2, "unit": "µM"}, {"measurement": "TGI", "setting": "[6]", "result": 24.3, "unit": "µM"}, {"measurement": "TGI", "setting": "[7]", "result": 5.68, "unit": "µM"}, {"measurement": "TGI", "setting": "[8]", "result": 17.3, "unit": "µM"}, {"measurement": "TGI", "setting": "[9]", "result": 3.84, "unit": "µM"}, {"measurement": "TGI", "setting": "[10]", "result": "> 32.7", "unit": "µM"}, {"measurement": "TGI", "setting": "[11]", "result": 19.2, "unit": "µM"}, {"measurement": "TGI", "setting": "[12]", "result": "> 100", "unit": "µM"}, {"measurement": "TGI", "setting": "[13]", "result": 13.6, "unit": "µM"}, {"measurement": "TGI", "setting": "[14]", "result": 21.7, "unit": "µM"}, {"measurement": "TGI", "setting": "[15]", "result": 5.66, "unit": "µM"}, {"measurement": "TGI", "setting": "[16]", "result": 7.95, "unit": "µM"}, {"measurement": "TGI", "setting": "[17]", "result": "> 64.2", "unit": "µM"}, {"measurement": "TGI", "setting": "[18]", "result": "> 91.9", "unit": "µM"}, {"measurement": "TGI", "setting": "[19]", "result": 38.8, "unit": "µM"}, {"measurement": "TGI", "setting": "[20]", "result": 50.7, "unit": "µM"}, {"measurement": "TGI", "setting": "[21]", "result": 19.3, "unit": "µM"}, {"measurement": "TGI", "setting": "[22]", "result": 45.2, "unit": "µM"}, {"measurement": "TGI", "setting": "[23]", "result": 18.8, "unit": "µM"}, {"measurement": "TGI", "setting": "[24]", "result": 19.5, "unit": "µM"}, {"measurement": "TGI", "setting": "[25]", "result": 24.9, "unit": "µM"}, {"measurement": "TGI", "setting": "[26]", "result": 24.2, "unit": "µM"}, {"measurement": "TGI", "setting": "[27]", "result": 13.5, "unit": "µM"}, {"measurement": "TGI", "setting": "[28]", "result": 12.2, "unit": "µM"}, {"measurement": "TGI", "setting": "[29]", "result": 33.9, "unit": "µM"}, {"measurement": "TGI", "setting": "[30]", "result": "> 58.1", "unit": "µM"}, {"measurement": "TGI", "setting": "[31]", "result": "> 66.5", "unit": "µM"}, {"measurement": "TGI", "setting": "[32]", "result": 50, "unit": "µM"}, {"measurement": "TGI", "setting": "[33]", "result": 8.7, "unit": "µM"}, {"measurement": "TGI", "setting": "[34]", "result": 43.7, "unit": "µM"}, {"measurement": "TGI", "setting": "[35]", "result": 39.9, "unit": "µM"}, {"measurement": "TGI", "setting": "[36]", "result": 28.3, "unit": "µM"}, {"measurement": "TGI", "setting": "[37]", "result": 39.9, "unit": "µM"}, {"measurement": "TGI", "setting": "[38]", "result": 26.9, "unit": "µM"}, {"measurement": "TGI", "setting": "[39]", "result": 29.1, "unit": "µM"}, {"measurement": "TGI", "setting": "[40]", "result": 26.7, "unit": "µM"}, {"measurement": "TGI", "setting": "[41]", "result": 14.1, "unit": "µM"}, {"measurement": "TGI", "setting": "[42]", "result": 7.54, "unit": "µM"}, {"measurement": "TGI", "setting": "[43]", "result": 6.3, "unit": "µM"}, {"measurement": "TGI", "setting": "[44]", "result": 37.4, "unit": "µM"}, {"measurement": "TGI", "setting": "[45]", "result": 16, "unit": "µM"}, {"measurement": "TGI", "setting": "[46]", "result": 47.7, "unit": "µM"}, {"measurement": "TGI", "setting": "[47]", "result": "> 49.8", "unit": "µM"}, {"measurement": "TGI", "setting": "[48]", "result": 29.5, "unit": "µM"}, {"measurement": "TGI", "setting": "[49]", "result": "> 100", "unit": "µM"}, {"measurement": "TGI", "setting": "[50]", "result": 16.4, "unit": "µM"}, {"measurement": "TGI", "setting": "[51]", "result": 76.6, "unit": "µM"}, {"measurement": "TGI", "setting": "[52]", "result": 15.9, "unit": "µM"}, {"measurement": "TGI", "setting": "[53]", "result": 49.3, "unit": "µM"}, {"measurement": "TGI", "setting": "[54]", "result": 62.9, "unit": "µM"}, {"measurement": "TGI", "setting": "[55]", "result": "> 70.4", "unit": "µM"}, {"measurement": "TGI", "setting": "[56]", "result": 69.6, "unit": "µM"}, {"measurement": "TGI", "setting": "[57]", "result": 12.9, "unit": "µM"}, {"measurement": "TGI", "setting": "[58]", "result": 32.6, "unit": "µM"}, {"measurement": "TGI", "setting": "[59]", "result": 33.9, "unit": "µM"}, {"measurement": "TGI", "setting": "[60]", "result": "> 100", "unit": "µM"}, {"measurement": "TGI", "setting": "[61]", "result": "> 24", "unit": "µM"}, {"measurement": "TGI", "setting": "[62]", "result": 11.9, "unit": "µM"}, {"measurement": "TGI", "setting": "[63]", "result": 80, "unit": "µM"}, {"measurement": "TGI", "setting": "[64]", "result": 11.9, "unit": "µM"}, {"measurement": "TGI", "setting": "[65]", "result": 72.8, "unit": "µM"}, {"measurement": "TGI", "setting": "[66]", "result": 29.1, "unit": "µM"}, {"measurement": "TGI", "setting": "[67]", "result": 32.2, "unit": "µM"}, {"measurement": "TGI", "setting": "[68]", "result": 35.9, "unit": "µM"}]}]}
